For assay [1], the target named is T1, Mycobacterium tuberculosis InhA (Mycobacterium tuberculosis, UniProt P9WGR1).
T1 construct: made in house; host or cells: E. coli
Put plainly: Mycobacterium tuberculosis InhA Inhibition Assay (Enzyme Assay). It is filed as biochemical. Particulars: 5 nM InhA, 50 μM DDCoA, 50 μM NADH, PIPES buffer pH 6.8, initial velocities of NADH consumption. As for the experimental part:
Mycobacterium tuberculosis InhA Inhibition Assay (Enzyme Assay)
InhA is able to reduce 2-trans enoyl-CoA esters with concomitant oxidation of NADH to NAD^+. The assay format is based on the kinetic detection of NADH consumption.
Assay for InhA inhibition is carried out with mycobacterium recombinant protein expressed and purified form E. coli. Standard assay conditions for the determination of kinetic constants and inhibitors activity use 5 nM of InhA, 50 μM of Dodecenoyl-CoA synthesized and purified as described by Quernard et al (DDCoA) and 50 μM of NADH as substrates, and it is carried out in 30 mM PIPES buffer pH 6.8, containing 0.05% of BSA. […] Triclosan is used as positive control in every experiment. One μl of compounds is added to the wells containing 25 μl of the DDCoA+NADH mix, the reaction is started by adding 50 μl of the enzyme solution. Fluorescence from NADH is followed at room temperature during 20 minutes in a fluorescent plate reader (excitation at 340 nm; emission at 480 nm). IC50 values are determined using initial velocities of NADH consumption.
Quernard A, Sacchettini J C, Dessen A, et al. Enzymatic characterization of the target for isoniazid in Mycobacterium tuberculosis. Biochemistry 1995; 34:8235-41.

Assay [2] concerns Mycobacterium tuberculosis H37Rv. Nature of the assay: Mycobacterium tuberculosis H37Rv Inhibition Assay (Whole Cell Assay). The class given is cell-based. Particulars: ATCC 25618 / H37Rv, H37Rv strain (ATCC25618), Middlebrook 7H9, six days at 37° C., resazurin fluorescence after 48 hours. In general terms: Resazurin is reduced to fluorescent resorufin, in cell work by metabolically active cells.

Results on 21 compounds are retold here after patent US8524750B2, “(Pyrazol-3-yl)-1,3,4-thiadiazol-2-amine and (pyrazol-3-yl)-1,3,4-thiazol-2-amine compounds” (Glaxo Group Limited, priority 2009, dated 2013).

The structures appear in SMILES notation. In brackets after ≈: the same amount, converted by molar mass. Where two headings read alike, the source gives them in different places.

T1 sequence (P9WGR1 whole entry, looked up): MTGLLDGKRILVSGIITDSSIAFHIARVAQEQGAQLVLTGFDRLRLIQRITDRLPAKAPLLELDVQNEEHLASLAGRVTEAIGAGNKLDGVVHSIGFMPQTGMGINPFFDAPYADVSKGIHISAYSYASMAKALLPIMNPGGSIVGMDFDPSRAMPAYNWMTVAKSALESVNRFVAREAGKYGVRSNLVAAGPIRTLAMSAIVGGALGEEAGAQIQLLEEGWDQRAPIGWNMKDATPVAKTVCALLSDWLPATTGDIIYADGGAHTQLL

One may read the IC50 as the concentration at which inhibition is half-maximal. As usually defined, the MIC is the lowest concentration that inhibits growth of the organism. A high value points to a less susceptible organism. As for `Cc1ccn(C(C)c2nnc(Nc3ccn(Cc4cccc(F)c4F)n3)s2)n1` (stereo not drawn) [Example 15, N-{1-[(2,3-difluorophenyl)methyl]-1H-pyrazol-3-yl}-5-[1-(3-methyl-1H-pyrazol-1-yl)ethyl]-1,3,4-thiadiazol-2-amine], the concentration for half-maximal inhibition (IC50) in assay [1] (read-out: IC50 value) was under 125 nM. The same compound had an MIC in assay [2] of 1 to 4 µM (≈ 0.401 to 1.61 µg/mL).

Take `Cc1csc(C(C)c2nnc(Nc3ccn(Cc4cccc(F)c4F)n3)s2)n1` (stereo not drawn) [Example 16, N-{1-[(2,3-difluorophenyl)methyl]-1H-pyrazol-3-yl}-5-[1-(4-methyl-1,3-thiazol-2-yl)ethyl]-1,3,4-thiadiazol-2-amine]: the IC50 in assay [1] (read-out: IC50 value) was under 119 nM. Further, the MIC in assay [2] was in the range of 1 to 4 µM (≈ 0.418 to 1.67 µg/mL).

Consider `Cc1cc(C)n(C(C)c2nnc(Nc3ccn(Cc4ccc(F)cc4Cl)n3)s2)n1` (stereo not drawn) [Example 17, N-{1-[(2-chloro-4-fluorophenyl)methyl]-1H-pyrazol-3-yl}-5-[1-(3,5-dimethyl-1H-pyrazol-1-yl)ethyl]-1,3,4-thiadiazol-2-amine], for which, in assay [1] (IC50 value), the 50% inhibitory concentration (IC50) was in the range of 116 to 232 nM. The compound further displayed an MIC in assay [2] of over 10 µM.

The compound `Cc1ccn(C(C)c2nnc(Nc3ccn(Cc4ccc(F)cc4Cl)n3)s2)n1` (stereo not drawn) [Example 18, N-{1-[(2-chloro-4-fluorophenyl)methyl]-1H-pyrazol-3-yl}-5-[1-(3-methyl-1H-pyrazol-1-yl)ethyl]-1,3,4-thiadiazol-2-amine] gave a half-inhibitory concentration (IC50) in assay [1] (IC50 value) of 120 to 239 nM. Besides, in assay [2], the MIC was over 10 µM.

Take `Cc1cc(C)n(C(C)c2nnc(Nc3cc(C)n(Cc4c(F)cccc4Cl)n3)s2)n1` (stereo not drawn) [Example 19, N-{1-[(2-chloro-6-fluorophenyl)methyl]-5-methyl-1H-pyrazol-3-yl}-5-[1-(3,5-dimethyl-1H-pyrazol-1-yl)ethyl]-1,3,4-thiadiazol-2-amine]: the half-maximal inhibitory concentration (IC50) in assay [1] (read-out: IC50 value) is under 112 nM. The same compound came in with a minimum inhibitory concentration (MIC) in assay [2] of 1 to 4 µM (≈ 0.446 to 1.78 µg/mL).

In the case of `Cc1cc(C)n(C(C)c2nnc(Nc3ccn(Cc4ccccc4C)n3)s2)n1` (stereo not drawn) [Example 20, 5-[1-(3,5-dimethyl-1H-pyrazol-1-yl)ethyl]-N-{1-[(2-methylphenyl)methyl]-1H-pyrazol-3-yl}-1,3,4-thiadiazol-2-amine], the IC50 in assay [1] (read-out: IC50 value) is under 127 nM. The compound further yielded a minimum inhibitory concentration (MIC) in assay [2] of 1 to 4 µM (≈ 0.394 to 1.57 µg/mL).

Consider `Cc1cc(C)n(C(C)c2nnc(Nc3ccn(Cc4ccccc4)n3)s2)n1` (stereo not drawn) [Example 21, 5-[1-(3,5-dimethyl-1H-pyrazol-1-yl)ethyl]-N-[1-(phenylmethyl)-1H-pyrazol-3-yl]-1,3,4-thiadiazol-2-amine], for which, in assay [1] (read-out: IC50 value), the half-maximal inhibitory concentration (IC50) was under 132 nM. Besides, the MIC in assay [2] is 4 to 10 µM (≈ 1.52 to 3.79 µg/mL).

On to `Cc1cc(C)n(C(C)c2nnc(Nc3ccn(Cc4c(Cl)ccc(C)c4F)n3)s2)n1` (stereo not drawn) [Example 22, N-{1-[(6-chloro-2-fluoro-3-methylphenyl)methyl]-1H-pyrazol-3-yl}-5-[1-(3,5-dimethyl-1H-pyrazol-1-yl)ethyl]-1,3,4-thiadiazol-2-amine], for which, in assay [1] (read-out: IC50 value), the IC50 was under 112 nM. In addition, the minimal inhibitory concentration (MIC) in assay [2] fell in the range of 1 to 4 µM (≈ 0.446 to 1.78 µg/mL).

Take `Cc1cc(C)n(C(C)c2nnc(Nc3ccn(Cc4c(F)ccc(C)c4Cl)n3)s2)n1` (stereo not drawn) [Example 23, N-{1-[(2-chloro-6-fluoro-3-methylphenyl)methyl]-1H-pyrazol-3-yl}-5-[1-(3,5-dimethyl-1H-pyrazol-1-yl)ethyl]-1,3,4-thiadiazol-2-amine]: in assay [1] (read-out: IC50 value), the half-inhibitory concentration (IC50) is under 112 nM. In assay [2], the minimal inhibitory concentration (MIC) was at most 1 µM.

Take `Cc1cc(C)n(C(C)c2nnc(Nc3ccn(Cc4cccc(C)c4F)n3)s2)n1` (stereo not drawn) [Example 24, 5-[1-(3,5-dimethyl-1H-pyrazol-1-yl)ethyl]-N-{1-[(2-fluoro-3-methylphenyl)methyl]-1H-pyrazol-3-yl}-1,3,4-thiadiazol-2-amine]: the IC50 in assay [1] (read-out: IC50 value) was under 122 nM. The MIC in assay [2] was at most 1 µM.

For `Cc1csc(C(C)c2nnc(Nc3ccn(Cc4cccc(C)c4F)n3)s2)n1` (stereo not drawn) [Example 25, N-{1-[(2-fluoro-3-methylphenyl)methyl]-1H-pyrazol-3-yl}-5-[1-(4-methyl-1,3-thiazol-2-yl)ethyl]-1,3,4-thiadiazol-2-amine], the half-maximal inhibitory concentration (IC50) in assay [1] (read-out: IC50 value) was under 121 nM. Besides, the minimal inhibitory concentration (MIC) in assay [2] was in the range of 1 to 4 µM (≈ 0.415 to 1.66 µg/mL).

Regarding `Cc1cc(C)n(C(C)c2nnc(Nc3ccn(Cc4cc(N)ccc4Cl)n3)s2)n1` (stereo not drawn) [Example 26, N-{1-[(5-amino-2-chlorophenyl)methyl]-1H-pyrazol-3-yl}-5-[1-(3,5-dimethyl-1H-pyrazol-1-yl)ethyl]-1,3,4-thiadiazol-2-amine], in assay [1] (read-out: IC50 value), the IC50 is under 117 nM. In assay [2], the minimal inhibitory concentration (MIC) is over 10 µM.

With `Cc1cc(C)n(C(C)c2nnc(Nc3ccn(Cc4cccc(N)c4C)n3)s2)n1` (stereo not drawn) [Example 27, N-{1-[(3-amino-2-methylphenyl)methyl]-1H-pyrazol-3-yl}-5-[1-(3,5-dimethyl-1H-pyrazol-1-yl)ethyl]-1,3,4-thiadiazol-2-amine], in assay [1] (read-out: IC50 value), the 50% inhibitory concentration (IC50) is under 122 nM. The compound also showed an MIC in assay [2] of 4 to 10 µM (≈ 1.63 to 4.09 µg/mL).

As to `Cc1csc(C(C)c2nnc(Nc3ccn(Cc4c(F)cccc4Cl)n3)s2)n1` (stereo not drawn) [Example 29, N-{1-[(2-chloro-6-fluorophenyl)methyl]-1H-pyrazol-3-yl}-5-[1-(4-methyl-1,3-thiazol-2-yl)ethyl]-1,3,4-thiadiazol-2-amine], in assay [1] (read-out: IC50 value), the IC50 is under 115 nM. In assay [2], this compound had an MIC of 1 to 4 µM (≈ 0.435 to 1.74 µg/mL).

For `CC(c1nc(C(F)(F)F)cs1)c1nnc(Nc2ccn(Cc3c(F)cccc3Cl)n2)s1` (stereo not drawn) [Example 31, N-{1-[(2-chloro-6-fluorophenyl)methyl]-1H-pyrazol-3-yl}-5-{1-[4-(trifluoromethyl)-1,3-thiazol-2-yl]ethyl}-1,3,4-thiadiazol-2-amine], the 50% inhibitory concentration (IC50) in assay [1] (read-out: IC50 value) was under 102 nM. The compound further gave a minimal inhibitory concentration (MIC) in assay [2] of over 10 µM.

For `Cc1csc(Cc2nnc(Nc3ccn(Cc4c(F)cccc4Cl)n3)s2)n1` [Example 32, N-{1-[(2-chloro-6-fluorophenyl)methyl]-1H-pyrazol-3-yl}-5-[(4-methyl-1,3-thiazol-2-yl)methyl]-1,3,4-thiadiazol-2-amine], the 50% inhibitory concentration (IC50) in assay [1] (read-out: IC50 value) is under 119 nM. The compound also yielded an MIC in assay [2] of 4 to 10 µM (≈ 1.68 to 4.21 µg/mL).

As for `Cc1csc(C(C)c2nnc(Nc3ccn(Cc4cccc(Cl)c4F)n3)s2)n1` (stereo not drawn) [Example 33, N-{1-[(3-chloro-2-fluorophenyl)methyl]-1H-pyrazol-3-yl}-5-[1-(4-methyl-1,3-thiazol-2-yl)ethyl]-1,3,4-thiadiazol-2-amine], the concentration for half-maximal inhibition (IC50) in assay [1] (read-out: IC50 value) was under 115 nM. Besides, the MIC in assay [2] was 1 to 4 µM (≈ 0.435 to 1.74 µg/mL).

In assay [1] (IC50 value), `Cc1cc(C)n(C(C)c2nnc(Nc3ccn(Cc4ccc(Cl)cc4)n3)s2)n1` (stereo not drawn) [Example 34, N-{1-[(4-chlorophenyl)methyl]-1H-pyrazol-3-yl}-5-[1-(3,5-dimethyl-1H-pyrazol-1-yl)ethyl]-1,3,4-thiadiazol-2-amine] yielded a half-maximal inhibitory concentration (IC50) of 121 to 242 nM. This compound also showed a minimum inhibitory concentration (MIC) in assay [2] of 4 to 10 µM (≈ 1.66 to 4.14 µg/mL).

`Cc1cc(C)n(C(C)c2nnc(Nc3ccn(Cc4ccc(C(F)(F)F)cc4)n3)s2)n1` (stereo not drawn) [Example 35, 5-[1-(3,5-dimethyl-1H-pyrazol-1-yl)ethyl]-N-(1-{[4-(trifluoromethyl)phenyl]methyl}-1H-pyrazol-3-yl)-1,3,4-thiadiazol-2-amine] came in with an IC50 in assay [1] (IC50 value) of 223 to 1120 nM. The compound also showed an MIC in assay [2] of over 10 µM.

Regarding `Cc1cc(C)n(C(C)c2nnc(Nc3ccn(Cc4cc(F)ccc4Cl)n3)s2)n1` (stereo not drawn) [Example 36, N-{1-[(2-chloro-5-fluorophenyl)methyl]-1H-pyrazol-3-yl}-5-[1-(3,5-dimethyl-1H-pyrazol-1-yl)ethyl]-1,3,4-thiadiazol-2-amine], in assay [1] (read-out: IC50 value), the IC50 was under 116 nM. In assay [2], this compound gave an MIC of 4 to 10 µM (≈ 1.73 to 4.32 µg/mL).

With `Cc1cc(C)n(Cc2cnc(Nc3ccn(Cc4c(F)cccc4Cl)n3)s2)n1` [Example 37, N-{1-[(2-chloro-6-fluorophenyl)methyl]-1H-pyrazol-3-yl}-5-[(3,5-dimethyl-1H-pyrazol-1-yl)methyl]-1,3-thiazol-2-amine], the IC50 in assay [1] (read-out: IC50 value) was under 120 nM. The same compound came in with an MIC in assay [2] of 4 to 10 µM (≈ 1.67 to 4.17 µg/mL).
